Format in all cases: cell-based
Experiment [1] has as its system P. aeruginosa E03763. Nature of the experiment: MIC, P. aeruginosa E03763. The conditions noted are these: Pseudomonas aeruginosa.
The test system of experiment [2] is P. aeruginosa E03441/WT. Briefly: MIC, P. aeruginosa E03441/WT. The conditions noted are these: Pseudomonas aeruginosa.
Experiment [3] relates to P. aeruginosa E03441/SKR2. Briefly: MIC, P. aeruginosa E03441/SKR2. To be noted: Pseudomonas aeruginosa.
For experiment [4], the system named is P. aeruginosa E03402. Briefly: MIC, P. aeruginosa E03402. The conditions noted are these: Pseudomonas aeruginosa.
Experiment [5] relates to E. coli CS109. Briefly: MIC, E. coli CS109. The conditions noted are these: Escherichia coli.
The test system of experiment [6] is P. aeruginosa E03441/R24. Nature of the experiment: MIC, P. aeruginosa E03441/R24. To be noted: Pseudomonas aeruginosa.
Experiment [7] deals with P. aeruginosa E03441/SKR2-14. Nature of the experiment: MIC, P. aeruginosa E03441/SKR2-14. The conditions noted are these: Pseudomonas aeruginosa, E03441/SKR214.
For experiment [8], the system named is P. aeruginosa NCTC10490. Nature of the experiment: MIC, P. aeruginosa NCTC10490. To be noted: Pseudomonas aeruginosa.
Experiment [9] concerns P. aeruginosa PA01. Nature of the experiment: MIC, P. aeruginosa PA01. The conditions noted are these: Pseudomonas aeruginosa.
Experiment [10] deals with P. aeruginosa E03441/SKR2/I-2. Nature of the experiment: MIC, P. aeruginosa E03441/SKR2/I-2. The conditions noted are these: Pseudomonas aeruginosa.
Experiment [11] deals with H. influenzae IID1638. Nature of the experiment: MIC, H. influenzae IID1638. The conditions noted are these: Haemophilus influenzae.
Experiment [12] relates to S. aureus E31295. Nature of the experiment: MIC, S. aureus E31295. To be noted: Staphylococcus aureus.

Converted amounts (≈) assume the structure as drawn.

In the case of `C[C@@H](O)[C@H]1C(=O)N2C(C(=O)O)=C(S[C@@H]3CN[C@H](C(O)C4CCNC4)C3)[C@H](C)[C@H]12` (stereo partly drawn), the MIC in [1] was found to be 0.8 µg/mL (≈ 1.94 µM); in experiment [2], 0.2 µg/mL (≈ 0.486 µM); in [3], 0.2 µg/mL (≈ 0.486 µM); in [4], 0.1 µg/mL (≈ 0.243 µM); in [5], 0.05 µg/mL (≈ 0.121 µM); in [6] it was 3.13 µg/mL (≈ 7.61 µM). Further, the MIC was 0.1 µg/mL (≈ 0.243 µM) in experiment [7]; 0.1 µg/mL (≈ 0.243 µM) in experiment [8]; 0.2 µg/mL (≈ 0.486 µM) in [9]; 0.4 µg/mL (≈ 0.972 µM) in experiment [10]; 0.2 µg/mL (≈ 0.486 µM) in [11]; 0.1 µg/mL (≈ 0.243 µM) in [12].
